What is called IC50 is the midpoint of a concentration-inhibition curve.

TBK1, sequence (Q9UHD2 whole entry): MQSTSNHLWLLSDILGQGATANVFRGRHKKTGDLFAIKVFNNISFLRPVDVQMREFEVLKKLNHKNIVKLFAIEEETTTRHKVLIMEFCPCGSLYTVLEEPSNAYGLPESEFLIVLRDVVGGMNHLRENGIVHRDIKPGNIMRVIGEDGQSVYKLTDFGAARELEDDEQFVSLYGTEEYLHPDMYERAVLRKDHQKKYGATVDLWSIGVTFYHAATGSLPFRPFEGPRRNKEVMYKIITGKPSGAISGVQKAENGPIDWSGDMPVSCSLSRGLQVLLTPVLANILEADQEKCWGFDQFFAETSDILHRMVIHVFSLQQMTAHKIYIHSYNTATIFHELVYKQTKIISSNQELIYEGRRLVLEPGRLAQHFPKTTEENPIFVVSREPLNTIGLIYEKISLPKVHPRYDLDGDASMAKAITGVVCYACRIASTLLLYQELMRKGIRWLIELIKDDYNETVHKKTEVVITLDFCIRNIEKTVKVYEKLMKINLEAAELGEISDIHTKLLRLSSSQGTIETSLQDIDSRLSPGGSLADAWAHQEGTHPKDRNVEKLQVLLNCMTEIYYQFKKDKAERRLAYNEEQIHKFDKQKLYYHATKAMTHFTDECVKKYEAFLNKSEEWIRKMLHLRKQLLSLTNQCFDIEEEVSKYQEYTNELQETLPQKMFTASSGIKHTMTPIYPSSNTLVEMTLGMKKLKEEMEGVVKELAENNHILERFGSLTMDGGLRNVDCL

This assay concerns the target TBK1 (Homo sapiens (Human), UniProt Q9UHD2). In words: TBK1 low ATP kinase assay (in vitro assay 1). As to conditions: in vitro assay 1, read-out: TBK1 low ATP kinase assay IC50. It counts as biochemical.
Consider `CC(c1ccnc(Nc2nc3ccc(-c4cc(C(F)(F)F)nn4C)cc3[nH]2)c1)N1CCN(C(=O)C2CC2)CC1` (single isomer, unassigned) [Example 88.03, cyclopropyl(4-{(1R or 1S)-1-[2-({6-[1-methyl-3-(trifluoromethyl)-1H-pyrazol-5-yl]-1H-benzimidazol-2-yl}amino)pyridin-4-yl]ethyl}piperazin-1-yl)methanone], for which the IC50 turned out to be 990 nM.

In the case of `CC(=O)N1CCN(Cc2ccnc(Nc3nc4ccc(-c5nc(C)no5)cc4[nH]3)c2)CC1` [Example 101.06, 1-{4-[(2-{[6-(3-methyl-1,2,4-oxadiazol-5-yl)-1H-benzimidazol-2-yl]amino}pyridin-4-yl)methyl]piperazin-1-yl}ethanone], the IC50 was found to be 990 nM.

Take `Cc1noc(-c2ccc3nc(Nc4cc(CN5C[C@@H](C)N(C(=O)C6CCC6)C[C@@H]5C)ccn4)[nH]c3c2)n1` [Example 16.02.05, cyclobutyl{(2R,5S)-2,5-dimethyl-4-[(2-{[6-(3-methyl-1,2,4-oxadiazol-5-yl)-1H-benzimidazol-2-yl]amino}pyridin-4-yl)methyl]piperazin-1-yl}methanone]: the half-inhibitory concentration (IC50) stood at 405 nM.

As to `CC(c1ccnc(Nc2nc3ccc(-c4cc(N5CC(C(F)(F)F)C5)ncn4)cc3[nH]2)c1)N1CCN(C(=O)C2CC2)CC1` (single isomer, unassigned) [Example 164.03, cyclopropyl{4-[(1R or 1S)-1-{2-[(6-{6-[3-(trifluoromethyl)azetidin-1-yl]pyrimidin-4-yl}-1H-benzimidazol-2-yl)amino]pyridin-4-yl}ethyl]piperazin-1-yl}methanone], the half-maximal inhibitory concentration (IC50) was determined as 0.558 nM.

As for `CC(c1ccnc(Nc2nc3ccc(-c4ccncn4)cc3[nH]2)c1)N1CCN(C(=O)C2CC2)CC1` (racemic) [Example 23.04.02, (rac)-cyclopropyl{4-[1-(2-{[6-(pyrimidin-4-yl)-1H-benzimidazol-2-yl]amino}pyridin-4-yl)ethyl]piperazin-1-yl}methanone], the IC50 came out at 2.42 nM.

Turning to `O=C(CC(F)(F)F)N1CCN(Cc2ccnc(Nc3nc4ccc(-c5ccnc(C(F)F)c5)cc4[nH]3)c2)CC1` [Example 139.02, 1-(4-{[2-({6-[2-(difluoromethyl)pyridin-4-yl]-1H-benzimidazol-2-yl}amino)pyridin-4-yl]methyl}piperazin-1-yl)-3,3,3-trifluoropropan-1-one], the IC50 amounted to 15 nM.

Consider `Cc1noc(-c2ccc3nc(Nc4cc(CN5CCN(c6cccc(F)c6)CC5)ccn4)[nH]c3c2)n1` [Example 101.09, N-(4-{[4-(3-fluorophenyl)piperazin-1-yl]methyl}pyridin-2-yl)-6-(3-methyl-1,2,4-oxadiazol-5-yl)-1H-benzimidazol-2-amine], for which the IC50 was 460 nM.

As to `O=C(CC(F)(F)F)N1CCN(Cc2ccnc(Nc3nc4ccc(-c5cncnc5)cc4[nH]3)c2)CC1` [Example 45.01.01, 3,3,3-trifluoro-1-{4-[(2-{[6-(pyrimidin-5-yl)-1H-benzimidazol-2-yl]amino}pyridin-4-yl)methyl]piperazin-1-yl}propan-1-one], the IC50 worked out at 323 nM.

For `COc1ncccc1-c1ccc2nc(Nc3cc(CN4CCN(C(=O)C5CC5)CC4)ccn3)[nH]c2c1` [Example 15.03, cyclopropyl{4-[(2-{[6-(2-methoxypyridin-3-yl)-1H-benzimidazol-2-yl]amino}pyridin-4-yl)methyl]piperazin-1-yl}methanone], the IC50 was 3810 nM.

On to `COc1cncnc1-c1ccc2nc(Nc3cc(C(C)N4CCN(C(=O)CC(F)(F)F)CC4)ccn3)[nH]c2c1` (single isomer, unassigned) [Example 35.03.01.A, 3,3,3-trifluoro-1-{4-[(1R or 1S)-1-(2-{[6-(5-methoxypyrimidin-4-yl)-1H-benzimidazol-2-yl]amino}pyridin-4-yl)ethyl]piperazin-1-yl}propan-1-one], for which the IC50 amounted to 3.85 nM.

For the origin of these results see US10894784B2, “Heteroarylbenzimidazole compounds” (BAYER PHARMA AKTIENGESELLSCHAFT, priority 2015, dated 2021).
